Measurements published in patent US6790951B1, “Expression system in microorganism and its use for expressing heterologous and homologous proteins” (priority 1995, dated 2004).
Ends that are not written are not given here.

Columns and labels:
[1] = tested on: Lactobacillus plantarum C11; test: Induction of bacteriocin production / gene expression in Lactobacillus plantarum C11; assay type: cell-based
Protocol: Experiments similar to the ones described in examples 1 and 2 were conducted with the bacteriocin producing strain Lactobacillus plantarum C11. These experiments yielded results that were essentially similar to the results described in examples 1 and 2. The sequence of the amphiphilic inducing peptide for the Lactobacillus plantarum C11 regulatory system is: […](26 residues) (SEQ. ID. NO: 1).
Observations essentially similar to the ones described by examples 1,2, and 4 have been made in relation to bacteriocin production by Lactobacillus plantarum C11. This strain produces a large number of bacteriocins, corresponding immunity proteins, and the 26-residue inducing peptide described in example 3. The corresponding genes have been cloned and sequenced. […] Promoter elements in front of the transcription start-points resemble those found in front of the genes involved in sakacin P production, as indicated in FIG. 4.
A 26-residue peptide (SEQ ID NO:1) with the sequence given in example 3 was synthesized.

[2] = Stability of the inducing component of culture medium to proteinase K and boiling; assay type: physicochemical
Excerpt: (§1) The Bac^+ phenotype of cells in this bacterial culture was lost upon diluting a Bac^+ LTH673 culture more than ˜2000-fold in fresh MRS-medium. […] Loss of the Bac^+ phenotype upon dilution or plating could be prevented by adding supernatant of an overnight Bac^+ LTH673 culture at an end concentration of minimally 0.05% (v/v). […] Colonies obtained after plating cells from a Bac^− culture in the presence of supernatant from a Bac^+ culture all were Bac^+.

[3] = tested on: genes involved in sakacin P production (FIG. 1) in Lactobacillus sake LTH673; test: Northern blotting of transcripts of the sakacin P genes in Bac- LTH673 cultures after adding the peptide; assay type: cell-based; conditions: purified or synthetic peptide
Excerpt: 5. In bacteriocin deficient cultures of LTH673, transcription of the genes depicted in FIG. 1 could not be detected (by Northern blotting).
In cultures of Lactobacillus sake LTH673 with the Bac^− phenotype, transcription of the genes depicted in FIG. 1 could not be detected at any stage during growth (by Northern blotting).

[4] = tested on: Lactobacillus sake LTH673; test: Induction or maintenance of bacteriocin (sakacin P) production, inducing-peptide production and immunity in Lactobacillus sake LTH673 cultures; assay type: cell-based; conditions: for induction of immunity to sakacin P / induction of production of the inducing peptide itself: added to Bac- Lactobacillus sake LTH673 cells; for induction of bacteriocin (sakacin P) production: added to Bac- Lactobacillus sake LTH673 cultures
Excerpt: This bacteriocin was later shown to be sakacin P (ref. 8). Bacterial cultures obtained by inoculating MRS medium (Difco Laboratories, Detroit, Mich., USA; or Oxoid ltd. Basingstoke, Hampshire, England) with material from this glycerol-stock produced sakacin P (Bac^+ phenotype) and, accordingly, were immune to purified sakacin P.
as §1
As indicated above Bac^− colonies of Lactobacillus sake LTH673 were obtained after plating cells from a Bac^+ culture. […] Glycerol stocks of such Bac^− cultures were made and fresh cultures obtained after inoculating MRS medium with an inoculum from such a glycerol stock again were Bac^−. In all cases tested, the only way to restore bacteriocin production was to add supernatant of a Bac^+ culture that thus, apparently, contains an inducing substance.
Lb. sake LTH673 (Bac^+) is immune to purified sakacin P and to several related purified bacteriocins. Immunity is caused by a specific protein that is produced concomitantly with the bacteriocin. Accordingly, we observed that the loss and induction of the Bac^+ phenotype was invariably accompanied by, respectively, the loss and induction of immunity to sakacin P. Another trait invariably linked to changes in the Bac phenotype was the inducing capacity itself: this capacity was only present in supernatants of Bac^+ cultures but not in the supernatants of Bac^− cultures.

| Sequence | induction of gene expression (bacteriocin, immunity and inducing peptide genes) ([1]; Bac- cultures of Lactobacillus plantarum C11) | inducing effects of the synthetic peptide compared with Bac+ culture supernatants and the purified peptide ([1]; synthetic peptide, in Lactobacillus plantarum C11) | inducing activity after boiling ([2]; boiling for 10 minutes) | inducing activity after proteinase K treatment ([2]; culture medium treated with proteinase K) | detection of transcripts of the genes of FIG. 1 [3] | time until transcripts could be detected after adding the peptide [3] | induction of immunity to sakacin P [4] | induction of production of the inducing peptide itself [4] | induction of immunity to sakacin P ([4]; listed as purified peptide) | induction of production of the inducing peptide itself ([4]; listed as purified peptide) | induction of bacteriocin (sakacin P) production [4] | induction of bacteriocin (sakacin P) production ([4]; listed as purified peptide) | inducing effects of the synthetic peptide compared with Bac+ culture supernatants and the purified peptide ([4]; synthetic peptide, in Lactobacillus sake LTH673) |
| --- | --- | --- | --- | --- | --- | --- | --- | --- | --- | --- | --- | --- | --- |
| KSSAYSLQMGATAIKQVKKLFKKWGW [26-residue inducing peptide] | gene expression can be induced | same inducing effects |  |  |  |  |  |  |  |  |  |  |  |
| MAGNSSNFIHKIKQIFTHR [19-residue peptide, purified or chemically synthesized] |  |  | not after boiling | lost | several transcripts could be detected | ≤ 30 min | restored | restored | resulted in the induction | resulted in the induction | restored | resulted in the induction | same inducing effects |
